The values below come from patent US11033577B2, “Polymer conjugate of hexa-coordinated platinum complex” (priority 2015, dated 2021).

Series [1] is described as follows: Body weight of mice in Antitumor Test 3. The settings on record: caudal vein. It counts as in vivo. Here is the method:
(§1) Human stomach cancer 4-1ST was collected subcutaneously from a nude mouse and was cut into blocks each measuring about 3 mm on each side. The tumor blocks thus obtained were transplanted subcutaneously on the dorsal side of nude mice using a trocar. On the 20th day after transplantation, where the average tumor volume had reached about 100 to 200 mm^3, various drugs were administered through the caudal vein. The use and dose (in terms of drug) of the various administered drugs are as follows. In regard to the Example 7 compound, the compound was dissolved in a 5% glucose injectable solution, and the solution was administered once at a dose of 15 mg/kg or 7.5 mg/kg. In regard to the Example 16 compound, the compound was dissolved in a 5% glucose injectable solution, and the solution was administered once at a dose of 30 mg/kg or 15 mg/kg. As a control drug, l-OHP was administered once at a dose of 18 mg/kg or 9 mg/kg, and cisplatin was administered once at a dose of 10 mg/kg. Regarding the amounts of administration of l-OHP and cisplatin and the high amounts of administration of the various Example compounds, the maximum tolerable doses (MTD doses) were employed for all of the compounds. After the administration, the major axis (L) and the minor axis (W) of the tumor were measured over time using calipers, and the tumor volume (L×W×W×0.5) was calculated. The test was performed by employing four animals per group for all of a non-administered group as well as various drug-administered groups. During the period from the initiation of administration to the 21st day after administration, the relative tumor volume (T/C (%)) of each drug-administered group based on the relative tumor volume of a non-drug-administered group as 100 was calculated by the following formula as an index for the antitumor effect. T/C(%)=Relative tumor volume of administered group/relative tumor volume of non-administered group×100 Formula: […]
After the administration, the body weights of the mice were measured over time. During the period from the initiation of administration to the 21st day after administration, the changes in the relative body weight based on the body weight on the day of initiation of administration as 1 are presented in Table 7.

Series [2] in a line: Maximum tolerable dose (MTD dose) in nude mice. Type of series: in vivo, BALB/cA-nu/nu mouse. As to conditions: administered once, caudal vein, dose in terms of drug. Here is the method:
Human stomach cancer 4-1ST was collected subcutaneously from a nude mouse and was finely cut into blocks each measuring about 3 mm on each side. The tumor blocks thus obtained were subcutaneously transplanted into the dorsal side of nude mice using a trocar. On the 15th day after transplantation, where the average tumor volume had reached about 100 to 200 mm^3, various drugs were administered through the caudal vein. The use and dose (in terms of drug) of the various administered drugs are as follows. In regard to the Example 1 compound, the compound was dissolved in a 5% glucose injectable solution, and the solution was administered once at a dose of 25 mg/kg or 12.5 mg/kg. In regard to the Example 2 compound, the compound was dissolved in a 5% glucose injectable solution, and the solution was administered once at a dose of 25 mg/kg or 12.5 mg/kg. In regard to the Example 3 compound, the compound was dissolved in a 5% glucose injectable solution, and the solution was administered once at a dose of 20 mg/kg or 10 mg/kg. In regard to the Example 4 compound, the compound was dissolved in a 5% glucose injectable solution, and the solution was administered once at a dose of 20 mg/kg or 10 mg/kg. In regard to the Example 5 compound, the compound was dissolved in a 5% glucose injectable solution, and the solution was administered once at a dose of 20 mg/kg or 10 mg/kg. As a control drug, l-OHP was administered once at a dose of 20 mg/kg, and cisplatin was administered once at a dose of 10 mg/kg. Regarding the amounts of administration of l-OHP and cisplatin and the high amounts of administration of the various Example compounds, the maximum tolerable doses (MTD doses) were employed for all of the compounds. After the administration, the major axis (L) and the minor axis (W) of the tumor were measured over time using calipers, and the tumor volume (L×W×W×0.5) was calculated. The test was performed by employing four animals per group for all of a non-administered group as well as various drug-administered groups. During the period from the initiation of administration to the 21st day after administration, the relative tumor volume (T/C (%)) of each drug-administered group based on the relative tumor volume of a non-drug-administered group as 100 was calculated by the following formula as an index for the antitumor effect. T/C(%)=Relative tumor volume of administered group/relative tumor volume of non-administered group×100 Formula: […]
as §1, with “the 17th” for “the 20th”, “Example 11” for “Example 7”, “Example 12” for “Example 16”, “18” for “18 mg/kg or 9”, “groups.” for “groups. During the period from the initiation of administration to the 21st day after administration, the relative tumor volume (T/C (%)) of each drug-administered group based on the relative tumor volume of a non-drug-administered group as 100 was calculated by the following formula as an index for the antitumor effect. T/C(%)=Relative tumor volume of administered group/relative tumor volume of non-administered group×100 Formula:”

Take `O=C1[O][Pt]2([NH][C@@H]3CCCC[C@H]3[NH]2)[O]C1=O` [l-OHP, oxaliplatin]: the “Relative body weight in numbers of days after administration” value (“Relative body weight in numbers of days” below) in series [1] (9 mg/kg once, day 0) is on record as 1.00; in series [1] (9 mg/kg once, day 4), 0.96; in series [1] (9 mg/kg once, day 7), 1.00; in series [1] (9 mg/kg once, day 11) it was 1.01; in series [1] (9 mg/kg once, day 14), 1.02; in series [1] (9 mg/kg once, day 18), 1.02. The “Relative body weight in numbers of days” value in series [1] (9 mg/kg once, day 21) amounted to 1.02; in series [1] (18 mg/kg once, day 0), 1.00; in series [1] (18 mg/kg once, day 4), 0.85; in series [1] (18 mg/kg once, day 7), 0.89; in series [1] (18 mg/kg once, day 11), 0.98; in series [1] (18 mg/kg once, day 14), 1.01. Besides, the “Relative body weight in numbers of days” value in series [1] (18 mg/kg once, day 18) is recorded as 1.02; in series [1] (18 mg/kg once, day 21) it was 1.04. The “maximum tolerable dose (MTD dose)” value in series [2] (Antitumor Test 1) turned out to be 20 mg/kg; in series [2] (Antitumor Test 2) it was 18 mg/kg; in series [2] (Antitumor Test 3) it was 18 mg/kg.

Turning to `N.N.[Cl][Pt][Cl]` [Cisplatin, cisplatin], the “maximum tolerable dose (MTD dose)” value in series [2] (Antitumor Test 1), in series [2] (Antitumor Test 2) and in series [2] (Antitumor Test 3) was 10 mg/kg throughout.
